{"source": "patent US20250325675A1", "about": "“APTAMER, CONJUGATE, COMPOSITION, METHOD FOR PREPARING SAME, AND USE THEREOF” (priority 2022, published 2025)", "key": {"[1]": {"system": "U118MG glioma subcutaneous tumor", "experiment": "In vivo distribution in U118MG cell subcutaneous tumor model mice (Experimental Example 4)", "parameters": "species or system NOD-SCID mice", "conditions": "mouse, in vivo", "procedure": "U118MG human glioma cells in the logarithmic growth phase were selected and digested (0.25% pancreatic enzyme).\nThe mice were further fed for 20 days after injection.\nThe mice inoculated with U118MG above were randomly divided into 3 groups (4 mice per group). For the 4 mice per group, the administration volume was calculated according to 10 μL/g body weight, and AP1, AP2 and comparative AP11 were respectively administered to different groups of mice by tail vein injection and designated as test group 4A1, test group 4A2 and control group 4A3. Thus, the administration dosage of each mouse was 3 mg/kg (based on aptamer). Another mouse inoculated with U118MG above was administered with 1×DMEM medium by tail vein injection (the administration volume was 10 μL/g body weight), and designated as blank control group 4Y."}, "[2]": {"system": "293T human renal epithelial cells", "experiment": "High content imaging: entry of conjugates into 293T cells", "assay_type": "cell-based", "conditions": "100 nM, 30 min 37°C, normal cells", "procedure": "(§1) In this experiment, the entry of conjugate AP1 provided by the present disclosure and comparative conjugate comparative AP10 into different cells was observed by a PerkinElmer High Content Imaging system (Operatta).\n(§2) U118MG glioma cells, SVGp12 normal astrocytes, T98G human brain glioma cells, U251 human glioma cells, A549 human non-small cell lung cancer cells, MCF-7 human breast cancer cells, and 293T human kidney epithelial cells were all purchased from the Shanghai Cell Bank of Chinese Academy of Sciences. […] The supernatant was aspirated and DPBS buffer (purchased from Thermo Fisher) was added to wash the plate 2 times (100 μL each time).\n(§3) Conjugate AP1 prepared above and yeast tRNA were respectively formulated into conjugate solution 2A with DMEM medium, and the conjugate solution 2A comprised yeast tRNA at a final concentration of 100 μg/mL and conjugate AP1 at a final concentration of 100 nM. […]\n(§4) Normalization was performed according to the mean fluorescence intensity of control group 2Y, that is, subtracting the mean fluorescence intensity of control group 2Y from the fluorescence intensity of test group 2X before performing imaging."}, "U118MG glioma cells": {"system": "U118MG glioma cells", "experiment": "High content imaging: entry of conjugates into U118MG glioma cells", "assay_type": "cell-based, human", "conditions": "100 nM, 30 min 37°C, normalized to control group 2Y", "procedure": "as §1, §2, §3, §4"}, "[3]": {"system": "U118-MG neuroglioma cells", "experiment": "CCK8 cell viability, U118-MG neuroglioma cells (Experimental Example 12)", "assay_type": "cell-based, human", "conditions": "72 h; AP1 50-800 nM, conjugate 19 25-800 nM; CCK8, OD450", "procedure": "U118MG neuroglioma cells were purchased from Jennio; SVGp12 human astrocytes were purchased from the Shanghai Cell Bank of Chinese Academy of Sciences; CCK8 kit was purchased from DOJINDO Laboratories.\nU118MG cells and SVGp12 cells in the logarithmic growth phase were selected and seeded into a 96-well plate of a CCK8 kit at 5000 cells/well, cultured at 37° C. with 5% CO2 for 24 h. U118-MG cells and SVGp12 cells to be detected were obtained when the cell confluence was observed as 80% under microscope. […]\nAP1 solution 1, AP1 solution 2, AP1 solution 3, and AP1 solution 4 were respectively added into U118-MG cells to be detected, and incubated at 37° C. for 72 h in the dark. […]\nConjugate 19 solution 1, Conjugate 19 solution 2, Conjugate 19 solution 3, Conjugate 19 solution 4, Conjugate 19 solution 5, Conjugate 19 solution 6, and Conjugate 19 solution 7 were respectively added into U118-MG cells to be detected, and incubated at 37° C. for 72 h in the dark. […]\nCC8 kit was used to detect UV absorbance of test groups and control groups above at the detection wavelength of 450 nm in UV absorption spectrum according to the instructions, and the average value of the repeated experiments was taken for each group. Cell viability was calculated according to the following equation: […]"}, "U251 human glioma cells": {"system": "U251 human glioma cells", "experiment": "High content imaging: entry of conjugates into U251 cells", "assay_type": "cell-based", "conditions": "100 nM, 30 min 37°C", "procedure": "as §1, §2, §3, §4"}, "[4]": {"system": "MCF-7 human breast cancer cells", "experiment": "High content imaging: entry of conjugates into MCF-7 cells", "assay_type": "cell-based", "conditions": "100 nM, 30 min 37°C", "procedure": "as §1, §2, §3, §4"}}, "note": "{Cy5} = cyanine 5 fluorescent dye"}
{"substance": "CY5-CfUfGGAGUfUfCfAGACfGUfGUfUfGCfUfCfUfUfCfCfGAUfCfUfCf (CUGGAGUUCAGACGUGUUGCUCUUCCGAUCUC; 2'-fluoro at CU, RNA at AG, 5' {Cy5}, backbone not given here) [AP1]", "values": [{"measurement": "fluorescence signal in mice / at site of tumor inoculation", "setting": "[1]", "value": "strong fluorescence signal at the sites of tumor inoculation"}, {"measurement": "Cy5 fluorescence signal in cells", "setting": "[2]", "value": "nor the 293T human renal epithelial cells showed any fluorescence signal"}, {"measurement": "Cy5 fluorescence signal in cells", "setting": "U118MG glioma cells", "value": "strong Cy5 fluorescence signal"}, {"measurement": "cell viability of tumor cells", "setting": "[3]", "value": "no effect on cell viability"}, {"measurement": "Cy5 fluorescence signal in cells", "setting": "U251 human glioma cells", "value": "strong Cy5 fluorescence signal"}, {"measurement": "Cy5 fluorescence signal in cells", "setting": "[4]", "value": "strong Cy5 fluorescence signal"}]}
